Results as given in ChEMBL document CHEMBL4665665, “4-Aryl Pyrrolidines as Novel Orally Efficacious Antimalarial Agents. Part 2: 2-Aryl-N-(4-arylpyrrolidin-3-yl)acetamides” (ACS Med Chem Lett, 2019).
Activity calls are given as the source filed them. No cut-off for these calls is given here.

What was measured:
[1] = Ratio of IC50 for antimalarial activity against CQ-sensitive Plasmodium falciparum 3D7 incubated for 72 hrs by SYBR Green-1 dye based fluorescence assay to Plasma concentration in NIH mouse infected with Plasmodium chabaudi ASS at 10 mg/kg, po qd for 4 days starting from 4 hrs post-parasite inoculation and measured at 24 hrs post-dosing on day 4 by LC/MS analysis
[2] = Plasma concentration in NIH mouse infected with Plasmodium chabaudi ASS at 10 mg/kg, po qd for 4 days starting from 4 hrs post-parasite inoculation and measured at 24 hrs post-dosing on day 4 by LC/MS analysis; assay type: ADME, organism-based; settings: dose 10 mg/kg/day, time 4 day
[3] = Plasma concentration in NIH mouse infected with Plasmodium chabaudi ASS at 10 mg/kg, po qd for 4 days starting from 4 hrs post-parasite inoculation and measured at 6 hrs post-dosing on day 4 by LC/MS analysis; assay type: ADME, organism-based; settings: dose 10 mg/kg/day, time 4 day
[4] = Plasma concentration in NIH mouse infected with Plasmodium chabaudi ASS at 10 mg/kg, po qd for 4 days starting from 4 hrs post-parasite inoculation and measured at 1 hr post-dosing on day 4 by LC/MS analysis; assay type: ADME, organism-based; settings: dose 10 mg/kg/day, time 4 day
[5] = Apparent volume of distribution in KM mouse at 2 mg/kg, iv administered as cassette dosing measured up to 24 hrs by LC/MS analysis; assay type: ADME, organism-based; settings: in vivo, read-out: Vz
[6] = Half life in KM mouse at 2 mg/kg, iv administered as cassette dosing measured up to 24 hrs by LC/MS analysis; assay type: ADME, organism-based; settings: in vivo
Cytochrome P450 2C19 = Cytochrome P450 2C19 (Homo sapiens, UniProt P33261); assay: Inhibition of recombinant human CYP2C19 expressed in baculovirus infected insect cells using s-mephenytoin as substrate incubated for 30 mins in presence of NADPH-regenerating system by fluorescence based assay; assay type: ADME
Cytochrome P450 2C19, sequence (P33261 whole entry): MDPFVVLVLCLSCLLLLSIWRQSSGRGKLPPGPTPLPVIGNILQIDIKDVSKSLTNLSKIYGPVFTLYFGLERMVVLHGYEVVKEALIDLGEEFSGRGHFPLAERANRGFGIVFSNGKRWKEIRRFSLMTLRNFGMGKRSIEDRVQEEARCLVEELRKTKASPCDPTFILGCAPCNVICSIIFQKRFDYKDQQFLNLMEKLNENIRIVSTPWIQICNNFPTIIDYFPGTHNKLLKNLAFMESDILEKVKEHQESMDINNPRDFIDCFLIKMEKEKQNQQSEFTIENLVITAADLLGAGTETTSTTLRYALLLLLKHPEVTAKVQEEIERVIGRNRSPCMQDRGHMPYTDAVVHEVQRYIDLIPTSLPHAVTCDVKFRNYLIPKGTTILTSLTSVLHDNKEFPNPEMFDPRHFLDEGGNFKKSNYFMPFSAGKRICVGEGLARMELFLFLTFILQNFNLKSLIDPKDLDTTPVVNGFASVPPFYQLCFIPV

[7] = Apparent clearance in KM mouse at 2 mg/kg, iv administered as cassette dosing measured up to 24 hrs by LC/MS analysis; assay type: ADME, organism-based; settings: in vivo
Cytochrome P450 2C9 = Cytochrome P450 2C9 (Homo sapiens, UniProt P11712); assay: Inhibition of recombinant human CYP2C9 expressed in baculovirus infected insect cells using tolbutamide as substrate incubated for 30 mins in presence of NADPH-regenerating system by fluorescence based assay; assay type: ADME
Cytochrome P450 2C9, sequence (P11712 whole entry): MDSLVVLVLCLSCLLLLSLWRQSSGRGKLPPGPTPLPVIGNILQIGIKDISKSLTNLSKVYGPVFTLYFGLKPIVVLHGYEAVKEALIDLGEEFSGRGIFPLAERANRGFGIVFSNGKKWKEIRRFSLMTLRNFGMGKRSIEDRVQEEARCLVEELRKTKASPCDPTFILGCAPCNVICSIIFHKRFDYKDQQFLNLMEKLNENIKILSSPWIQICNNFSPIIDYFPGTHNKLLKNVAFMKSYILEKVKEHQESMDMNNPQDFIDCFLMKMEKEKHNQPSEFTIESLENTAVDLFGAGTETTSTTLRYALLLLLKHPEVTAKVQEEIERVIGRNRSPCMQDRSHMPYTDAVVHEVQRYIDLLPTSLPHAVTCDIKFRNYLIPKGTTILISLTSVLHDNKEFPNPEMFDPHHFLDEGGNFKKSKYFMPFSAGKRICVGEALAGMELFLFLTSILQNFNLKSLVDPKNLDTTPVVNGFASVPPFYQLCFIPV

Cytochrome P450 2D6 = Cytochrome P450 2D6 (Homo sapiens, UniProt P10635); assay: Inhibition of recombinant human CYP2D6 expressed in baculovirus infected insect cells using dextromethorphan as substrate incubated for 30 mins in presence of NADPH-regenerating system by fluorescence based assay; assay type: ADME
Cytochrome P450 2D6, sequence (P10635 whole entry): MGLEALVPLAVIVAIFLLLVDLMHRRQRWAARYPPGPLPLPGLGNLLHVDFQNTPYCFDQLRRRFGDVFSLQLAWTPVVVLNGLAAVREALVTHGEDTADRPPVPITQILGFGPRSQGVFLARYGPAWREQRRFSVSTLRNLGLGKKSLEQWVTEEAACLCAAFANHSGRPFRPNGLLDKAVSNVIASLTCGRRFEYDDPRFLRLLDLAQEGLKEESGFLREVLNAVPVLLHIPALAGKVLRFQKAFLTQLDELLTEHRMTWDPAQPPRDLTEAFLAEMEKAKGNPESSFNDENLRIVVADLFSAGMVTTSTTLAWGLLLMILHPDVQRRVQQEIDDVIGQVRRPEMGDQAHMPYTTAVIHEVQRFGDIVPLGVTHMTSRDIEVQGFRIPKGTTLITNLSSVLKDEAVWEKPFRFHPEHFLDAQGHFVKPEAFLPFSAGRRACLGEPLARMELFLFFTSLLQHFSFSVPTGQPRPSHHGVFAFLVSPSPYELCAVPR

Cytochrome P450 1A2 = molecular target: T1, Cytochrome P450 1A2 (Homo sapiens, UniProt P05177); assay: Inhibition of recombinant human CYP1A2 expressed in baculovirus infected insect cells using phenacetin as substrate incubated for 30 mins in presence of NADPH-regenerating system by fluorescence based assay; assay type: ADME
T1 sequence (P05177 whole entry): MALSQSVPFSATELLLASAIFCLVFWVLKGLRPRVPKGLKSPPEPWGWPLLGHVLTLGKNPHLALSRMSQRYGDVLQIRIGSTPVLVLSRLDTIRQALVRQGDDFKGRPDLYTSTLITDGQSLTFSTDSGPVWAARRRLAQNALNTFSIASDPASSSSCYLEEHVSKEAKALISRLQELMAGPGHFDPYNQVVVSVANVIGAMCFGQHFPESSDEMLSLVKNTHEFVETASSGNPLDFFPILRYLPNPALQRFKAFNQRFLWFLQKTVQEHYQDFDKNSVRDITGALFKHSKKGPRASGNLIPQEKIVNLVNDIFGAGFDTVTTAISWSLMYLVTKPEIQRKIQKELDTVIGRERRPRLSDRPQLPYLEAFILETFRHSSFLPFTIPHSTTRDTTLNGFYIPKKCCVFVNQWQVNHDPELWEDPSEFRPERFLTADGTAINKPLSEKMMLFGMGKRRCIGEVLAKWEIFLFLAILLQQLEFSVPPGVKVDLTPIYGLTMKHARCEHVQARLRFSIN

Cytochrome P450 3A4 = Cytochrome P450 3A4 (Homo sapiens, UniProt P08684); assay: Inhibition of recombinant human CYP3A4 expressed in baculovirus infected insect cells using midazolam as substrate incubated for 30 mins in presence of NADPH-regenerating system by fluorescence based assay; assay type: ADME
Cytochrome P450 3A4, sequence (P08684 whole entry): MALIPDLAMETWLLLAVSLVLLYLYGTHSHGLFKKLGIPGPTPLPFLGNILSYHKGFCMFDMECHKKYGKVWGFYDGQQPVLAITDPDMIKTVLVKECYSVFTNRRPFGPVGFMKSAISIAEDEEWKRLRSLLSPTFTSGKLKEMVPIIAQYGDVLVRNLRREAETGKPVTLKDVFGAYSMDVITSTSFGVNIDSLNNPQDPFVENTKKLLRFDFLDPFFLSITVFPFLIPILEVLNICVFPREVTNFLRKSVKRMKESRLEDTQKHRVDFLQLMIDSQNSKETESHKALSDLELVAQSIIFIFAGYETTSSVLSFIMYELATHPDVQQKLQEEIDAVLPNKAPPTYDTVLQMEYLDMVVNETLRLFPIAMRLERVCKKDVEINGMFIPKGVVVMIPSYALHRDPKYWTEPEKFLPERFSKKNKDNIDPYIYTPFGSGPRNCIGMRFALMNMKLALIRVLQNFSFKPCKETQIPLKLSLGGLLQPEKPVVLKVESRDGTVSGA

hERG = assay: Selectivity ratio of IC50 for human ERG incubated for 2 hrs by fluorescence polarization assay to IC50 for CQ-sensitive Plasmodium falciparum 3D7 incubated for 72 hrs by SYBR Green-1 dye based fluorescence assay; assay type: toxicity; settings: read-out: Ratio IC50
[8] = molecular target: Beta-secretase 1 (Homo sapiens) (UniProt P56817); assay: Inhibition of recombinant human BACE1 using Mca-SEVNLDAEFRK(Dnp)RR-NH2 fluorogenic peptide as substrate incubated for 60 mis by fluorescence based assay; settings: time 60.0 min
Beta-secretase 1 (Homo sapiens), sequence (P56817 whole entry): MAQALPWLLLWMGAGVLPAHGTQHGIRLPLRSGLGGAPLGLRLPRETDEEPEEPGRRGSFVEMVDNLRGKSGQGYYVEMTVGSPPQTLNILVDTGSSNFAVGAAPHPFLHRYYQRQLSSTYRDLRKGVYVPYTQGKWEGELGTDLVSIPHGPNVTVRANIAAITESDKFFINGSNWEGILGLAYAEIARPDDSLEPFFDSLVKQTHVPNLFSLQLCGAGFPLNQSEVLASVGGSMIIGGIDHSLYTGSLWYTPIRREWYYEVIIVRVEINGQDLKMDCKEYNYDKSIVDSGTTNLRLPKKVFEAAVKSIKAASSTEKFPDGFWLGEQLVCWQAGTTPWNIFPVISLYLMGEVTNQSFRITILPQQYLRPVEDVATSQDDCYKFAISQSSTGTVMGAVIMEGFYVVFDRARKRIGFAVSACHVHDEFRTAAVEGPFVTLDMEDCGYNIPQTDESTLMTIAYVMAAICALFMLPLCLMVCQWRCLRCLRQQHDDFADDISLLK

[9] = molecular target: Voltage-gated inwardly rectifying potassium channel KCNH2 (Homo sapiens, UniProt Q12809); assay: Displacement of Tracer Red from human ERG incubated for 2 hrs by fluorescence polarization assay
Voltage-gated inwardly rectifying potassium channel KCNH2, sequence (Q12809 whole entry): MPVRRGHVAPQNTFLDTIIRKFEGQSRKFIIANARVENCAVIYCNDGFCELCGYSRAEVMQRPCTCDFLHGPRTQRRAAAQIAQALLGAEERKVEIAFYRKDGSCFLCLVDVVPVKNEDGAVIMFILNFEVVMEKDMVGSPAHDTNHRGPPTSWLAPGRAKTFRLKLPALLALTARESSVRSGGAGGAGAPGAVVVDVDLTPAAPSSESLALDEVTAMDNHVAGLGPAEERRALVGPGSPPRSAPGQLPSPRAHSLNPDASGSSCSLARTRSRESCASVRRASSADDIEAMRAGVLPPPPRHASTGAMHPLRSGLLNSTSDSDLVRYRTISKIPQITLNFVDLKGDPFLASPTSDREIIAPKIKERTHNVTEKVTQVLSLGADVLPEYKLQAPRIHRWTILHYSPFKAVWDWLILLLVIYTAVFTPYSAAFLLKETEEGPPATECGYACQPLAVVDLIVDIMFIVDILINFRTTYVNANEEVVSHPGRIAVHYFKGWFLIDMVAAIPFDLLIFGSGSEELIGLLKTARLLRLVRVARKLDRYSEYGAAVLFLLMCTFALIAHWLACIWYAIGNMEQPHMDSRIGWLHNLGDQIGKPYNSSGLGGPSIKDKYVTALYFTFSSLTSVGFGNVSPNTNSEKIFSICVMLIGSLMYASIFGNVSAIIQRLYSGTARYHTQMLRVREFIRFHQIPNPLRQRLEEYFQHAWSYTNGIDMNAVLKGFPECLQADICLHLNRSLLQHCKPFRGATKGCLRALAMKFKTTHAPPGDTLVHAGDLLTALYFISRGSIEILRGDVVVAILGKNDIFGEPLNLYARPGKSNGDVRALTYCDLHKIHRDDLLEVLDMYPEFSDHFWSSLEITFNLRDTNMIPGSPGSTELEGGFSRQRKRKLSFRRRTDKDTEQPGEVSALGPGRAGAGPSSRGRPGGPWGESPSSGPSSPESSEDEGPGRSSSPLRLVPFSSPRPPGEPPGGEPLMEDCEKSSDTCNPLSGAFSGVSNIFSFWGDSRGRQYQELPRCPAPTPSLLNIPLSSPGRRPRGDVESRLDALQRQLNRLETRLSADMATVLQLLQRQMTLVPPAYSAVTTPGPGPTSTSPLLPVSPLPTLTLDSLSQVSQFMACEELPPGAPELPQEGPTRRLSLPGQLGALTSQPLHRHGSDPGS

Plasmodium falciparum [10] = assay: Inhibition of Plasmodium falciparum plasmepsin 4 using PM-2 peptide substrate incubated for 60 mis by fluorescence based assay; settings: time 60.0 min
[11] = molecular target: Plasmepsin II (Plasmodium falciparum) (UniProt P46925); assay: Inhibition of Plasmodium falciparum plasmepsin 2 using PM-2 peptide substrate incubated for 60 mis by fluorescence based assay; settings: time 60.0 min
Plasmepsin II (Plasmodium falciparum), sequence (P46925 125-453 limits assumed): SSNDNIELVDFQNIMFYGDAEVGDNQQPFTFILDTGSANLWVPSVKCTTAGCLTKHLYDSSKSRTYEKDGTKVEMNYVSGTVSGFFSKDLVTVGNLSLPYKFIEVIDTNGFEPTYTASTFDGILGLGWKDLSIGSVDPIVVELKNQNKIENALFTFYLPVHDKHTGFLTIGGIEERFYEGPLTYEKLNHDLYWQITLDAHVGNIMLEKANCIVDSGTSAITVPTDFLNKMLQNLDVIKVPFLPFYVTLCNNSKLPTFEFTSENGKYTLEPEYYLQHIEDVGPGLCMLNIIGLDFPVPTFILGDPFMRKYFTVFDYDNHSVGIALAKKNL

Plasmodium falciparum [12] = assay: Antimalarial activity against CQ-sensitive Plasmodium falciparum 3D7 incubated for 72 hrs by SYBR Green-1 dye based fluorescence assay; assay type: functional, organism-based; settings: Plasmodium falciparum, 3D7, 72 h
Plasmodium falciparum [13] = assay: Antimalarial activity against multidrug resistant Plasmodium falciparum Dd2 incubated for 72 hrs by SYBR Green-1 dye based fluorescence assay; assay type: functional, organism-based; settings: Dd2, 72 h
Plasmodium chabaudi [14] = assay: Antimalarial activity against Plasmodium chabaudi ASS infected in NIH mouse assessed as inhibition of parasitemia at 10 mg/kg, po qd for 4 days starting from 4 hrs post-parasite inoculation and measured at 24 hrs after last-drug treatment by Peter's 4-day suppressive test relative to control; assay type: functional; settings: 96 h
HepG2 [15] = assay: Cytotoxicity against human HepG2 cells assessed as cell viability at 5 uM incubated for 72 hrs by PrestoBlue cell viability reagent based assay; settings: hepg2, 72 h
Plasmodium chabaudi [16] = assay: Antimalarial activity against Plasmodium chabaudi ASS infected po dosed NIH mouse assessed as inhibition of parasitemia administered oce daily for 4 days starting from 4 hrs post parasite-inoculation and measured at 24 hrs post-last treatment by Peter's 4-day suppressive test; assay type: functional; settings: 96 h
[17] = Plasma concentration in NIH mouse infected with Plasmodium chabaudi ASS at 30 mg/kg, po qd for 4 days starting from 4 hrs post-parasite inoculation and measured at 24 hrs post-dosing on day 4 by LC/MS analysis; assay type: ADME, organism-based; settings: dose 30 mg/kg/day, time 4 day
[18] = Plasma concentration in NIH mouse infected with Plasmodium chabaudi ASS at 30 mg/kg, po qd for 4 days starting from 4 hrs post-parasite inoculation and measured at 6 hrs post-dosing on day 4 by LC/MS analysis; assay type: ADME, organism-based; settings: dose 30 mg/kg/day, time 4 day
[19] = Plasma concentration in NIH mouse infected with Plasmodium chabaudi ASS at 30 mg/kg, po qd for 4 days starting from 4 hrs post-parasite inoculation and measured at 1 hr post-dosing on day 4 by LC/MS analysis; assay type: ADME, organism-based; settings: dose 30 mg/kg/day, time 4 day
[20] = Plasma concentration in NIH mouse infected with Plasmodium chabaudi ASS at 3 mg/kg, po qd for 4 days starting from 4 hrs post-parasite inoculation and measured at 24 hrs post-dosing on day 4 by LC/MS analysis; assay type: ADME, organism-based; settings: dose 3 mg/kg/day, time 4 day
[21] = Plasma concentration in NIH mouse infected with Plasmodium chabaudi ASS at 3 mg/kg, po qd for 4 days starting from 4 hrs post-parasite inoculation and measured at 6 hrs post-dosing on day 4 by LC/MS analysis; assay type: ADME, organism-based; settings: dose 3 mg/kg/day, time 4 day
[22] = Plasma concentration in NIH mouse infected with Plasmodium chabaudi ASS at 3 mg/kg, po qd for 4 days starting from 4 hrs post-parasite inoculation and measured at 1 hr post-dosing on day 4 by LC/MS analysis; assay type: ADME, organism-based; settings: dose 3 mg/kg/day, time 4 day
Plasmodium chabaudi [23] = assay: Antimalarial activity against Plasmodium chabaudi ASS infected in NIH mouse assessed as inhibition of parasitemia at 30 mg/kg, po qd for 4 days starting from 4 hrs post-parasite inoculation and measured at 24 hrs after last-drug treatment by Peter's 4-day suppressive test relative to control; assay type: functional; settings: 96 h
HepG2 [24] = assay: Cytotoxicity against human HepG2 cells assessed as cell viability at 50 uM incubated for 72 hrs by PrestoBlue cell viability reagent based assay; settings: hepg2, 72 h
Plasmodium chabaudi [25] = assay: Antimalarial activity against Plasmodium chabaudi ASS infected in NIH mouse assessed as inhibition of parasitemia at 3 mg/kg, po qd for 4 days starting from 4 hrs post-parasite inoculation and measured at 24 hrs after last-drug treatment by Peter's 4-day suppressive test relative to control; assay type: functional; settings: 96 h

CN(C)c1ccc(CC(=O)N[C@@H]2CNC[C@H]2c2ccc(S(F)(F)(F)(F)F)cc2)cc1
Ratio [1]: 6 | concentration at 96 h [2]: 14.9 nM | concentration at 96 h [3]: 119 nM | concentration at 96 h [4]: 129 nM | Vd [5]: 6.2 L/kg | half-life [6]: 7 h | IC50 (Cytochrome P450 2C19): 29.4 µM | clearance [7]: 10.5 mL/min/kg | IC50 (Cytochrome P450 2C9): 36.6 µM | IC50 (Cytochrome P450 2D6): 90 µM | IC50 (Cytochrome P450 1A2): > 100 µM | IC50 (Cytochrome P450 3A4): 0.159 µM | selectivity ratio at 2 h (hERG): 28 | inhibition [8]: inactive | IC50 [9]: 2.57 µM | inhibition (Plasmodium falciparum [10]): inactive | inhibition [11]: inactive | IC50 (Plasmodium falciparum [12]): 0.091 µM | IC50 (Plasmodium falciparum [13]): 0.089 µM | inhibition in vivo at 10 mg/kg/day (Plasmodium chabaudi [14]): 65.3% | Activity (HepG2 [15]): Non-Toxic

CN(C)c1ccc(CC(=O)N[C@@H]2CNC[C@H]2c2ccc(C(C)(F)F)cc2)cc1
ED90 (Plasmodium chabaudi [16]): < 10 mg/kg/day | ED99 (Plasmodium chabaudi [16]): 30 mg/kg/day | concentration at 96 h [17]: 28.5 nM | concentration at 96 h [18]: 1150 nM | concentration at 96 h [19]: 1310 nM | concentration at 96 h [20]: 6.6 nM | concentration at 96 h [21]: 34.1 nM | concentration at 96 h [22]: 114 nM | concentration at 96 h [2]: 1.7 nM | concentration at 96 h [3]: 48.9 nM | concentration at 96 h [4]: 389 nM | inhibition in vivo at 30 mg/kg/day (Plasmodium chabaudi [23]): 99.9% | Activity (HepG2 [24]): Non-Toxic | Vd [5]: 2.1 L/kg | half-life [6]: 2.7 h | IC50 (Cytochrome P450 2C19): 49.7 µM | clearance [7]: 13.8 mL/min/kg | IC50 (Cytochrome P450 2C9): > 100 µM | IC50 (Cytochrome P450 2D6): 40.6 µM | IC50 (Cytochrome P450 1A2): > 100 µM | IC50 (Cytochrome P450 3A4): 2.5 µM | inhibition [8]: inactive | inhibition (Plasmodium falciparum [10]): inactive | inhibition [11]: inactive | IC50 (Plasmodium falciparum [12]): 0.051 µM | IC50 (Plasmodium falciparum [13]): 0.053 µM | inhibition in vivo at 10 mg/kg/day (Plasmodium chabaudi [14]): 94.1% | inhibition in vivo at 3 mg/kg/day (Plasmodium chabaudi [25]): 34% | Activity (HepG2 [15]): Non-Toxic

CN(C)c1ccc(CC(=O)N[C@@H]2CNC[C@H]2c2ccc(C(F)(F)F)cc2)cc1
Ratio [1]: 6 | concentration at 96 h [2]: 7.4 nM | concentration at 96 h [3]: 181 nM | concentration at 96 h [4]: 255 nM | Vd [5]: 4.2 L/kg | half-life [6]: 5.6 h | IC50 (Cytochrome P450 2C19): 45.4 µM | clearance [7]: 7.9 mL/min/kg | IC50 (Cytochrome P450 2C9): 98.1 µM | IC50 (Cytochrome P450 2D6): 24.5 µM | IC50 (Cytochrome P450 1A2): > 100 µM | IC50 (Cytochrome P450 3A4): 0.871 µM | selectivity ratio at 2 h (hERG): 49 | inhibition [8]: inactive | IC50 [9]: 5.91 µM | inhibition (Plasmodium falciparum [10]): inactive | inhibition [11]: inactive | IC50 (Plasmodium falciparum [12]): 0.12 µM | IC50 (Plasmodium falciparum [13]): 0.078 µM | inhibition in vivo at 10 mg/kg/day (Plasmodium chabaudi [14]): 61.2% | Activity (HepG2 [15]): Non-Toxic
